The first test has as its target T1, KRAS G12C 1-169, his-tagged protein, GDP-loaded (Homo sapiens, UniProt P01116, G12C).
T1 construct: KRAS G12C 1-169, his-tagged protein, GDP-loaded
Put plainly: Covalent binding (% modification) to KRAS G12C by mass spectrometry. Further: test concentration or dose not given here. The note with it: covalent binding to KRAS G12C after a ten minute incubation period.
In the case of `C=CC(=O)N1CCN(c2nc(N3CC(N(C)C)C3)nc3c(F)c(-c4c(O)cccc4F)c(Cl)cc23)C[C@@H]1C` [Compound 82, 1-((2S)-4-(6-chloro-2-(3-(dimethylamino)azetidin-1-yl)-8-fluoro-7-(2-fluoro-6-hydroxyphenyl)quinazolin-4-yl)-2-methyl-piperazin-1-yl) prop-2-en-1-one], the Binding % entry is recorded as “++ (++ indicates binding activity from 50 to 90%)”.

On to `C=CC(=O)N1C[C@H](C)N(c2nc(OCCN3CC(F)(F)C3)nc3c(F)c(-c4c(O)cccc4F)c(Cl)cc23)C[C@H]1C` [Compound 38, 1-((2R,5 S)-4-(6-Chloro-2-(2-(3,3-Difluoroazetidin-1-Yl)Ethoxy)-8-Fluoro-7-(2-Fluoro-6-Hydroxyphenyl)Quinazolin-4-Yl)-2,5-Dimethylpiperazin-1-Yl)Prop-2-En-1-One], for which the Binding % entry is “+++ (+++ indicates binding activity greater than 90%)”.

In the case of `C=CC(=O)N1CCN(c2nc(N3CC(N(C)C)C3)nc3c(F)c(-c4c(O)cccc4F)c(Cl)cc23)[C@@H](C)C1` [Compound 8, 1-((3 S)-4-(6-Chloro-2-(3-(Dimethylamino)Azetidin-1-Yl)-8-Fluoro-7-(2-Fluoro-6-Hydroxyphenyl)Quinazolin-4-Yl)-3-Methylpiperazin-1-Yl)Prop-2-En-1-One], the Binding % result is recorded as “+++ (+++ indicates binding activity greater than 90%)”.

On to `C=CC(=O)N1CCN(c2nc(NC3CCN(C4CC4)CC3)nc3c(F)c(-c4c(C)ccc5[nH]ncc45)c(Cl)cc23)[C@@H](C)C1` (atropisomer, axis not shown) [Compound 13, 1-((S)-4-(6-chloro-2-(1-cyclopropyl-piperidin-4-ylamino)-8-fluoro-7-((R)-5-methyl-1H-indazol-4-yl)quinazolin-4-yl)-3-methyl-piperazin-1-yl) prop-2-en-1-one], for which the Binding % result is “+++ (+++ indicates binding activity greater than 90%)”.

For `C=CC(=O)N1C[C@@H](C)N(c2nc(OCCN3CC(F)(F)C3)nc3c(F)c(-c4c(C)ccc5[nH]ncc45)c(Cl)cc23)[C@@H](C)C1` [Compound 45, 1-((3S,5R)-4-(6-chloro-2-(2-(3,3-difluoroazetidin-1-yl)ethoxy)-8-fluoro-7-(5-methyl-1H-indazol-4-yl)quinazolin-4-yl)-3,5-dimethyl-piperazin-1-yl) prop-2-en-1-one], the Binding % entry is listed as “++ (++ indicates binding activity from 50 to 90%)”.

The test is the same for the next values; noted with them: covalent binding to KRAS G12C after a three minute incubation period.
In the case of `C=CC(=O)N1C[C@H](C)N(c2nc(OCCCN(C)C)nc3c(F)c(-c4c(C)ccc5[nH]ncc45)c(C(F)(F)F)cc23)C[C@H]1C` [Compound 215, 1-((2R,5S)-4-(2-(3-(dimethylamino)propoxy)-8-fluoro-7-(5-methyl-1H-indazol-4-yl)-6-(trifluoromethyl)quinazolin-4-yl)-2,5-dimethyl-piperazin-1-yl) prop-2-en-1-one], the Binding % entry is listed as “+++ (+++ indicates binding activity greater than 90%)”.

On to `[2H]C([2H])([2H])N(C1CN(c2nc(N3C[C@@H](C)N(C(=O)C=C)C[C@@H]3C)c3cc(Cl)c(-c4c(O)cccc4F)c(F)c3n2)C1)C([2H])([2H])[2H]` (atropisomer, axis not shown) [Compound 207, 1-((2R,5S)-4-(2-(3-(bis(triduetero-methyl)amino)azetidin-1-yl)-6-chloro-8-fluoro-7-((S)-2-fluoro-6-hydroxyphenyl)quinazolin-4-yl)-2,5-dimethyl-piperazin-1-yl) prop-2-en-1-one], for which the Binding % entry is “+++ (+++ indicates binding activity greater than 90%)”.

For `C=CC(=O)N1CCN(c2nc(N3CC(N(C)C)C3)nc3c(F)c(-c4c(O)cccc4F)c(Cl)cc23)C[C@@H]1C` [Compound 88, 1-((2S)-4-(6-chloro-2-(3-(dimethylamino)azetidin-1-yl)-8-fluoro-7-(2-fluoro-6-hydroxyphenyl)quinazolin-4-yl)-2-methyl-piperazin-1-yl) prop-2-en-1-one], the Binding % entry was “+ (+ indicates binding activity greater than 0% and up to 50%)”.

As for `C=CC(=O)N1C[C@H](C)N(c2nc(OCCCN3CCC(F)(F)C3)nc3c(F)c(-c4c(C)ccc5[nH]ncc45)c(Cl)cc23)C[C@H]1C` [Compound 231, 1-((2R,5S)-4-(6-chloro-2-(3-(3,3-difluoropyrrolidin-1-yl)propoxy)-8-fluoro-7-(5-methyl-1H-indazol-4-yl)quinazolin-4-yl)-2,5-dimethyl-piperazin-1-yl) prop-2-en-1-one], the Binding % result is “++ (++ indicates binding activity from 50 to 90%)”.

As for `C=CC(=O)N1C[C@H](C)N(c2nc(N3CC(NC)C3)nc3c(F)c(-c4c(C)ccc5[nH]ncc45)c(Cl)cc23)C[C@H]1C` [Compound 188, 1-((2R,5S)-4-(6-chloro-8-fluoro-7-(5-methyl-1H-indazol-4-yl)-2-(3-(methylamino)azetidin-1-yl)quinazolin-4-yl)-2,5-dimethyl-piperazin-1-yl) prop-2-en-1-one], the Binding % result was “+ (+ indicates binding activity greater than 0% and up to 50%)”.

Regarding `C=CC(=O)N1C[C@H](C)N(c2nc(Oc3ccnn3C)nc3c(F)c(-c4c(C)ccc5[nH]ncc45)c(Cl)cc23)C[C@H]1C` [Compound 204, 1-((2R,5S)-4-(6-chloro-8-fluoro-7-(5-methyl-1H-indazol-4-yl)-2-((1-methyl-1H-pyrazol-5-yl)oxy)quinazolin-4-yl)-2,5-dimethyl-piperazin-1-yl) prop-2-en-1-one], the Binding % result is “++ (++ indicates binding activity from 50 to 90%)”.

With `C=CC(=O)N1C[C@H](C)N(c2nc(N3CC4(CCCN4C)C3)nc3c(F)c(-c4c(C)ccc5[nH]ncc45)c(Cl)cc23)C[C@H]1C` [Compound 186, 1-((2R,5S)-4-(6-chloro-8-fluoro-7-(5-methyl-1H-indazol-4-yl)-2-(5-methyl-2,5-diazaspiro[3.4]octan-2-yl)quinazolin-4-yl)-2,5-dimethyl-piperazin-1-yl) prop-2-en-1-one], the Binding % result is recorded as “++ (++ indicates binding activity from 50 to 90%)”.

`C=CC(=O)N1C[C@H](C)N(c2nc(N3CC(N(C)C4CCC4)C3)nc3c(F)c(-c4c(O)cccc4F)c(Cl)cc23)C[C@H]1C` (atropisomer, axis not shown) [Compound 138, 1-((2R,5S)-4-(6-chloro-2-(3-(cyclobutyl (methyl)amino)azetidin-1-yl)-8-fluoro-7-((S)-2-fluoro-6-hydroxyphenyl)quinazolin-4-yl)-2,5-dimethyl-piperazin-1-yl) prop-2-en-1-one]: the Binding % result is “+++ (+++ indicates binding activity greater than 90%)”.

With `C=CC(=O)N1C[C@H](C)N(c2nc(N3CC(N(C)C4CCC4)C3)nc3c(F)c(-c4c(O)cccc4F)c(Cl)cc23)C[C@H]1C` [Compound 110, 1-((2R,5S)-4-(6-chloro-2-(3-(cyclobutyl (methyl)amino)azetidin-1-yl)-8-fluoro-7-(2-fluoro-6-hydroxyphenyl)quinazolin-4-yl)-2,5-dimethyl-piperazin-1-yl) prop-2-en-1-one], the Binding % entry is “++ (++ indicates binding activity from 50 to 90%)”.

For the molecule `C=CC(=O)N1CCN(c2nc(N3CC(N(CC)CC)C3)nc3c(F)c(-c4c(C)ccc5[nH]ncc45)c(Cl)cc23)[C@@H](C)C1` [Compound 167, 1-((3S)-4-(6-chloro-2-(3-(diethylamino)azetidin-1-yl)-8-fluoro-7-(5-methyl-1H-indazol-4-yl)quinazolin-4-yl)-3-methyl-piperazin-1-yl) prop-2-en-1-one], the Binding % result was “+++ (+++ indicates binding activity greater than 90%)”.

For `C=CC(=O)N1C[C@H](C)N(c2nc(N3CC(N(CC)C4CC4)C3)nc3c(F)c(-c4c(O)cccc4F)c(Cl)cc23)C[C@H]1C` [Compound 105, 1-((2R,5S)-4-(6-chloro-2-(3-(cyclopropyl (ethyl)amino)azetidin-1-yl)-8-fluoro-7-(2-fluoro-6-hydroxyphenyl)quinazolin-4-yl)-2,5-dimethyl-piperazin-1-yl) prop-2-en-1-one], the Binding % result is recorded as “++ (++ indicates binding activity from 50 to 90%)”.

As for `C=CC(=O)N1C[C@@H](C)N(c2nc(N3CC(N(C)C)C3)nc3c(F)c(-c4c(O)cccc4F)c(Cl)cc23)C[C@@H]1C` [Compound 87, 1-((2S,5R)-4-(6-chloro-2-(3-(dimethylamino)azetidin-1-yl)-8-fluoro-7-(2-fluoro-6-hydroxyphenyl)quinazolin-4-yl)-2,5-dimethyl-piperazin-1-yl) prop-2-en-1-one], the Binding % entry was “+ (+ indicates binding activity greater than 0% and up to 50%)”.

Turning to `C=CC(=O)N1C[C@H](C)N(c2nc(N3CC4(COC4)C3)nc3c(F)c(-c4c(O)cccc4F)c(Cl)cc23)C[C@H]1C` [Compound 192, 1-((2R,5S)-4-(6-chloro-8-fluoro-7-(2-fluoro-6-hydroxyphenyl)-2-(2-oxa-6-azaspiro[3.3]heptan-6-yl)quinazolin-4-yl)-2,5-dimethyl-piperazin-1-yl) prop-2-en-1-one], the Binding % entry is given as “++ (++ indicates binding activity from 50 to 90%)”.

Turning to `C=CC(=O)N1CCN(c2nc(N3CC(C)(N(C)C)C3)nc3c(F)c(-c4c(O)cccc4F)c(Cl)cc23)[C@@H](C)C1` [Compound 153, 1-((3S)-4-(6-chloro-2-(3-(dimethylamino)-3-methylazetidin-1-yl)-8-fluoro-7-(2-fluoro-6-hydroxyphenyl)quinazolin-4-yl)-3-methyl-piperazin-1-yl) prop-2-en-1-one], the Binding % entry is “+++ (+++ indicates binding activity greater than 90%)”.

As for `C=CC(=O)N1C[C@H](C)N(c2nc(OCCN3CC(F)(F)C3)nc3c(F)c(-c4c(O)cccc4F)c(Cl)cc23)C[C@H]1C` (atropisomer, axis not shown) [Compound 89, 1-((2R,5S)-4-(6-chloro-2-(2-(3,3-difluoroazetidin-1-yl)ethoxy)-8-fluoro-7-((R)-2-fluoro-6-hydroxyphenyl)quinazolin-4-yl)-2,5-dimethyl-piperazin-1-yl) prop-2-en-1-one], the Binding % result was “+ (+ indicates binding activity greater than 0% and up to 50%)”.

Values taken from patent publication US10646488B2 (Araxes Pharma LLC, priority 2016, dated 2020).
